Data reported in US8929978B2, “Phototherapy devices and methods comprising optionally substituted terphenyl and quaterphenyl compounds” (Nitto Denko Corporation, priority 2011, dated 2015).

How the values were obtained:
[1] = system: person suffering from age-related macular degeneration; experiment: Verteporphin activated by red OLED light in age-related macular degeneration; assay type: in vivo; conditions: about 6 mg/m^2 i.v.; retina illuminated about 15 minutes after start of infusion with red OLED
[2] = system: person suffering from pathological myopia; experiment: Verteporphin activated by red OLED light in pathological myopia; assay type: in vivo; conditions: about 6 mg/m^2 i.v.; retina illuminated about 15 minutes after start of infusion with red OLED
[3] = system: person suffering from presumed ocular histoplasmosis; conditions: in vivo, iv
[4] = system: CHO-K1 (Chinese Hamster Ovarian Cancer, ATCC, CRL-2243) cell line; experiment: Ex-vivo efficacy study with OLED Device A and ALA (MTT cell viability, microscopy)
[5] = system: person suffering from actinic keratoses; experiment: Photodynamic treatment of actinic keratoses lesions with red OLED light; conditions: 20% topical solution; illuminated about 14-18 hours after application with red OLED of Example 2

For `C=Cc1c(C)c2cc3nc(cc4[nH]c(cc5nc(cc1[nH]2)C(C)=C5CCC(=O)O)c(CCC(=O)OC)c4C)[C@@]1(C)C3=CC=C(C(=O)OC)[C@H]1C(=O)OC` [Verteporphin], the “patient's vision after treatment” value [1] was “stabilized”, the “patient's vision after treatment” value [2] was “stabilized” and the “patient's vision after treatment” value [3] was “stabilized”.

In the case of `NCC(=O)CCC(=O)O` [ALA, 5-aminolevulinic acid], the “cell necrosis, 20 mW/cm^2 versus 10 mW/cm^2 output power” value ([4]; ALA 1 mM, irradiation time 25 min at 20 mW/cm^2 and 50 min at 10 mW/cm^2 (FIG. 17)) is reported as “somewhat faster with 20 mW/cm^2 than 10 mW/cm^2”, the “generation of PpIX (protoporphyrin IX) from ALA in cells” value ([4]; ALA 0.5, 1, 2 mM, about 16 hrs at 37° C., fluorescence emission at 635 nm) is reported as “confirmed” and the cytotoxicity at 1000 µM ([4]; Cricetulus griseus, CHO-K1, light or radiation study, read-out: cells destroyed compared with the reference (MTT cell viability, light dosimetry)) is reported as roughly 90%. The “cell morphology under optical microscope after light irradiation” value ([4]; after about 25 J/cm^2 red light (630 nm) irradiation, leafy type cells transform to droplet type (FIG. 14)) was “significant and irreversible cell death”.

`Cl.NCC(=O)CCC(=O)O` [5-Aminolevulinic acid HCl] was tested, and the “number or severity of the lesions after treatment” value [5] was “reduced”.
